Laboratory results from ChEMBL document CHEMBL4219030, “Progress in the discovery of small molecule modulators of the Cys-loop superfamily receptors” (Bioorg Med Chem Lett, 2017).

Assays:
[1] = molecular target: T1, Glycine receptor subunit alpha-1 (Homo sapiens, UniProt P23415); assay: Positive allosteric modulation of recombinant human glycine receptor alpha1 expressed in HEK293 cells assessed as increase in glycine-induced current at -60 mV holding potential by whole cell patch-clamp method; format: cell-based
T1 sequence (P23415 whole entry): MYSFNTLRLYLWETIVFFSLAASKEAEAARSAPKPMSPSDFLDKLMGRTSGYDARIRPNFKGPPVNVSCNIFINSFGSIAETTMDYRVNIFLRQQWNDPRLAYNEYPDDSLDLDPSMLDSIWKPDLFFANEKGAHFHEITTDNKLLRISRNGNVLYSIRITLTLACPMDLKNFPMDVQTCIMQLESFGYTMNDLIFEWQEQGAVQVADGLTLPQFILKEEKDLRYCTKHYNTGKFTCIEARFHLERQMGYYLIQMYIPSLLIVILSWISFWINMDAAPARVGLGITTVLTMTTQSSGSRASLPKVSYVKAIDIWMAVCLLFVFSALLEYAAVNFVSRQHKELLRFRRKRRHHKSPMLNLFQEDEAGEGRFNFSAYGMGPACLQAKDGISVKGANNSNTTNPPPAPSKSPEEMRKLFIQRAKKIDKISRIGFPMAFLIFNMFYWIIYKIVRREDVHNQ

[2] = molecular target: T2, Glycine receptor subunit alpha-1 (Homo sapiens) (UniProt P23415); assay: Positive allosteric modulation of recombinant human glycine receptor alpha1 expressed in HEK293 cells assessed as potentiation of glycine-induced current at -60 mV holding potential by whole cell patch-clamp method relative to 10 uM glycine; format: cell-based
T2 sequence (whole entry): T1 sequence (P23415 whole entry)

[3] = molecular target: Glycine receptor (alpha-1/beta) (Homo sapiens, UniProt P23415+P48167); assay: Inhibition of recombinant human glycine receptor alpha1beta expressed in HEK293 cells; format: cell-based
Chain of Glycine receptor (alpha-1/beta) (P48167 whole entry, one chain of several): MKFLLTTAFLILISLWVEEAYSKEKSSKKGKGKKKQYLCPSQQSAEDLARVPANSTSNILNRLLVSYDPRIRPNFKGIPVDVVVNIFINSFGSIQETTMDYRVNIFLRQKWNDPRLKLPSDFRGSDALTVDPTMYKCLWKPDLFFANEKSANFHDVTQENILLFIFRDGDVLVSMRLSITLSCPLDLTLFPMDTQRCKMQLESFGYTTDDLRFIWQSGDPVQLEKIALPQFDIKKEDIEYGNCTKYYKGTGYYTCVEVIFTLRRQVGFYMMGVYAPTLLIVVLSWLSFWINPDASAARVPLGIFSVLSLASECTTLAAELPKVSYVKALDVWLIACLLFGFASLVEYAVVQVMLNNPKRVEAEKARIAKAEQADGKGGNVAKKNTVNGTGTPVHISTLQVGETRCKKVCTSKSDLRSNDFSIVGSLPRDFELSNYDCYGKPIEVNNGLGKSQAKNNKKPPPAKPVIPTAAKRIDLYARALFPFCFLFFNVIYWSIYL

[4] = molecular target: Glycine receptor subunit alpha-2/beta (Homo sapiens, UniProt P23416+P48167); assay: Inhibition of recombinant human glycine receptor alpha2beta expressed in HEK293 cells; format: cell-based
Chain of Glycine receptor subunit alpha-2/beta (P23416 whole entry): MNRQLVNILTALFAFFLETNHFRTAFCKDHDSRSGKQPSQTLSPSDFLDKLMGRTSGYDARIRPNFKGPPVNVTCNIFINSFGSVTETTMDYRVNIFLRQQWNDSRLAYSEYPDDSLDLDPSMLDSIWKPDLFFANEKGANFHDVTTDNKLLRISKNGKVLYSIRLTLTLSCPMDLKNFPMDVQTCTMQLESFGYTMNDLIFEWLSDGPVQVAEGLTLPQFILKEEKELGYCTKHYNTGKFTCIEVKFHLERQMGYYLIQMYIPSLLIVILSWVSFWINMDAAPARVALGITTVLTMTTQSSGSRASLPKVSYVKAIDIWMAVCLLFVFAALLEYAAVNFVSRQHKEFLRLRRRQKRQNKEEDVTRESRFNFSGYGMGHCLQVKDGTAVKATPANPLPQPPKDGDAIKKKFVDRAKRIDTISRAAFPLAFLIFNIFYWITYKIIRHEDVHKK
Chain of Glycine receptor subunit alpha-2/beta (P48167 whole entry): as the sequence (P48167 whole entry, one chain of several) above

[5] = molecular target: Glycine receptor alpha-3/beta (Homo sapiens, UniProt O75311+P48167); assay: Inhibition of recombinant human glycine receptor alpha3beta expressed in HEK293 cells; format: cell-based
[6] = molecular target: T3, GABA-A receptor; alpha-1/beta-3/gamma-2 (Homo sapiens) (UniProt P14867+P18507+P28472); assay: Positive allosteric modulation of recombinant human GABAA receptor alpha1beta3gamma2 expressed in Xenopus oocytes assessed as potentiation of GABA induced chloride current response relative to GABA; format: cell-based
[7] = molecular target: GABA-A receptor; alpha-2/beta-3/gamma-2 (Homo sapiens, UniProt P18507+P28472+P47869); assay: Displacement of [3H]Ro15-1788 from human GABAA receptor alpha2beta3gamma2 expressed in LTK cells […]; format: cell-based
[8] = molecular target: T4, GABA A receptor alpha-4/beta-3/gamma-2 (Homo sapiens, UniProt P18507+P28472+P48169); assay: Displacement of [3H][…] from human GABAA receptor alpha4beta3gamma2 expressed in LTK cells […]; format: cell-based
[9] = molecular target: GABA-A receptor; alpha-5/beta-3/gamma-2 (Homo sapiens, UniProt P18507+P28472+P31644); assay: Displacement of [3H]Ro15-1788 from human GABAA receptor alpha5beta3gamma2 expressed in LTK cells […]; format: cell-based
[10] = molecular target: T5, GABA-A receptor; alpha-2/beta-3/gamma-2 (Homo sapiens) (UniProt P18507+P28472+P47869); assay: Positive allosteric modulation of recombinant human GABAA receptor alpha2beta3gamma2 expressed in Xenopus oocytes assessed as potentiation of GABA induced chloride currents relative to GABA; format: cell-based
[11] = molecular target: GABA-A receptor; alpha-3/beta-3/gamma-2 (Homo sapiens) (UniProt P18507+P28472+P34903); assay: Positive allosteric modulation of recombinant human GABAA receptor alpha3beta3gamma2 expressed in Xenopus laevis oocytes assessed as potentiation of GABA induced chloride currents relative to GABA; format: cell-based
[12] = molecular target: T4, GABA A receptor alpha-4/beta-3/gamma-2; assay: Positive allosteric modulation of recombinant human GABAA receptor alpha4beta3gamma2 expressed in Xenopus laevis oocytes assessed as potentiation of GABA induced chloride currents relative to GABA; format: cell-based
[13] = molecular target: GABA-A receptor; alpha-5/beta-3/gamma-2 (Homo sapiens) (UniProt P18507+P28472+P31644); assay: Positive allosteric modulation of recombinant human GABAA receptor alpha5beta3gamma2 expressed in Xenopus laevis oocytes assessed as potentiation of GABA induced chloride currents relative to GABA; format: cell-based
[14] = molecular target: GABA-A receptor; alpha-6/beta-3/gamma-2 (Homo sapiens) (UniProt P18507+P28472+Q16445); assay: Positive allosteric modulation of recombinant human GABAA receptor alpha6beta3gamma2 expressed in Xenopus oocytes assessed as potentiation of GABA induced chloride currents relative to GABA; format: cell-based
[15] = molecular target: Gamma-aminobutyric acid receptor subunit alpha-1 (Rattus norvegicus, UniProt P62813); assay: Agonist activity at GABAA receptor in Sprague-Dawley rat forebrain membranes assessed as enhancement of [3H]muscimol binding after 2 hrs by radiometric analysis; design: species or system Membrane
Chain of Gamma-aminobutyric acid receptor subunit alpha-1 (P62813 whole entry): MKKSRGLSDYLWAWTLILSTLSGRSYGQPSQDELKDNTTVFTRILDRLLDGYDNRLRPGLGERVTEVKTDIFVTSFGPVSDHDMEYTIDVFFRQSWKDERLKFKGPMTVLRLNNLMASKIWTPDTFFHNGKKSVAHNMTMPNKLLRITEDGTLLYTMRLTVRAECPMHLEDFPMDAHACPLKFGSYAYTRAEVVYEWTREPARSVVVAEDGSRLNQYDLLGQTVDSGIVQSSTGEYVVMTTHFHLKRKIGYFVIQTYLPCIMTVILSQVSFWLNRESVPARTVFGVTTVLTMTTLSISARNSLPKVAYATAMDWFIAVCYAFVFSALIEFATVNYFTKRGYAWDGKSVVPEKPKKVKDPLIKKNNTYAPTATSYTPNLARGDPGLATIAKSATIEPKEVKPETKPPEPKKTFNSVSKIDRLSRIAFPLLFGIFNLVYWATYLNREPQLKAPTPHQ

[16] = molecular target: Gamma-aminobutyric acid receptor subunit alpha-1 (Rattus norvegicus) (UniProt P62813); assay: Agonist activity at GABAA receptor in Sprague-Dawley rat forebrain membranes assessed as enhancement of [3H]muscimol binding at 1 to 100 uM after 2 hrs by radiometric analysis relative to control; details: Membrane
Chain of Gamma-aminobutyric acid receptor subunit alpha-1 (Rattus norvegicus) (P62813 whole entry): as above

[17] = molecular target: GABA A receptor alpha-1/beta-1/gamma-2 (Homo sapiens, UniProt P14867+P18505+P18507); assay: Agonist activity at recombinant human GABAA receptor alpha1beta1gamma2L expressed in Xenopus laevis oocytes incubated for 30 secs by electrophysiological method; format: cell-based
[18] = molecular target: T6, GABA-A receptor; alpha-1/beta-2/gamma-2 (Homo sapiens, UniProt P14867+P18507+P47870); assay: Agonist activity at recombinant human GABAA receptor alpha1beta2gamma2L expressed in Xenopus laevis oocytes incubated for 30 secs by electrophysiological method; format: cell-based
T6 sequence (P14867 whole entry): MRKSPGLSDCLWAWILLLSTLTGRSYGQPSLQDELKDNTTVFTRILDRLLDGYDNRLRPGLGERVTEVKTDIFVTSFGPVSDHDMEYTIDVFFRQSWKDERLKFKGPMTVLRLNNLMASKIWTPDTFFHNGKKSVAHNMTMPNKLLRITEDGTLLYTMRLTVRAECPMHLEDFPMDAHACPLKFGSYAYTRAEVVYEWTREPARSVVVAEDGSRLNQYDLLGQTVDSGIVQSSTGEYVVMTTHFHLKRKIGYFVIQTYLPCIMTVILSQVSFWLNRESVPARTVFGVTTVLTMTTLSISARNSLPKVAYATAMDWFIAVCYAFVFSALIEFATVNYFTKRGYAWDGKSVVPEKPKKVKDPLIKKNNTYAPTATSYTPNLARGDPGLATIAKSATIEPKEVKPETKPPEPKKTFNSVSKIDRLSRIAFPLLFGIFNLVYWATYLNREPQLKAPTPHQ
T6 sequence (P47870 whole entry): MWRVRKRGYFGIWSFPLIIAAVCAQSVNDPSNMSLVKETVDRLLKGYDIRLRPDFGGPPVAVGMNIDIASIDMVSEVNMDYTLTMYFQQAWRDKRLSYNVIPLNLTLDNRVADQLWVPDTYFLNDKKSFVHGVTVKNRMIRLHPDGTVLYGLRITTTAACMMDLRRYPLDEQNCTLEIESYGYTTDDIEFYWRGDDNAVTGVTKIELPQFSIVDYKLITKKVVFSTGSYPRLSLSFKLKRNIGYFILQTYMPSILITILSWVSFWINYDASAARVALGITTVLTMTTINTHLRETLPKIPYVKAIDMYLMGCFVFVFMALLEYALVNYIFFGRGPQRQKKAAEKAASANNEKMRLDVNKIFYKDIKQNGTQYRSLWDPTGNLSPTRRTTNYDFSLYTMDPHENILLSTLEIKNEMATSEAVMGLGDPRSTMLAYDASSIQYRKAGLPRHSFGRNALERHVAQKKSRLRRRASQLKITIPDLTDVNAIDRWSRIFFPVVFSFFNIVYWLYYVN
T6 sequence (P18507 whole entry): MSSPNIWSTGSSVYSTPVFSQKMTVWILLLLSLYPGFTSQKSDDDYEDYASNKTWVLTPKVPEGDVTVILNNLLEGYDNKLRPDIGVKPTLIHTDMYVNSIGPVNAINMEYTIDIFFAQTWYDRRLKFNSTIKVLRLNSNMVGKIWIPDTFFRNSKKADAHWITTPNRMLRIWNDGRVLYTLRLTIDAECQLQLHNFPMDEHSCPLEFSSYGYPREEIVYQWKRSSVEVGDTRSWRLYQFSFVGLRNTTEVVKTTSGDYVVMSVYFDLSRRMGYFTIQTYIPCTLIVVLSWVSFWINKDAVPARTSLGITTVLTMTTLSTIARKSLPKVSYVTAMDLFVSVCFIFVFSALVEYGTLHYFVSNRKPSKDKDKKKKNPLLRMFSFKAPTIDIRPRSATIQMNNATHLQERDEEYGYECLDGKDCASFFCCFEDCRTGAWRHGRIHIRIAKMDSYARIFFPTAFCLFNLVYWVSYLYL

[19] = molecular target: T7, GABA A receptor alpha-2/beta-2/gamma-2 (Homo sapiens, UniProt P18507+P47869+P47870); assay: Agonist activity at recombinant human GABAA receptor alpha2beta2gamma2L expressed in Xenopus laevis oocytes incubated for 30 secs by electrophysiological method; format: cell-based
T7 sequence (P47870 whole entry): as the sequence (P47870 whole entry) above
T7 sequence (P18507 whole entry): as the sequence (P18507 whole entry) above
T7 sequence (P47869 whole entry): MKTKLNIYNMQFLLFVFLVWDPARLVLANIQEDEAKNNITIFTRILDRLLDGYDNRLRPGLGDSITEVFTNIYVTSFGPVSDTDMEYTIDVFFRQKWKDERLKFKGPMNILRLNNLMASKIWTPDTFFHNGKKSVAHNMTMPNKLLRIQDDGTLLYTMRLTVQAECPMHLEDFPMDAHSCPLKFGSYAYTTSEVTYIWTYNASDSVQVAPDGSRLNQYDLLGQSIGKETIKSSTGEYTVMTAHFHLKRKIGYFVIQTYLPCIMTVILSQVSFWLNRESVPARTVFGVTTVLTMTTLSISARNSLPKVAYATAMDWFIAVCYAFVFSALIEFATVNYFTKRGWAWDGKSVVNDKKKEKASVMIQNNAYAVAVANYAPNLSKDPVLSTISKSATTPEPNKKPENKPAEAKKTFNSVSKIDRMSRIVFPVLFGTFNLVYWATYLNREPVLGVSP

[20] = molecular target: Gamma-aminobutyric acid receptor subunit alpha-4/beta-2/delta (Homo sapiens, UniProt O14764+P47870+P48169); assay: Positive allosteric modulation of GABAA receptor alpha4beta2delta (unknown origin); format: protein-complex assay
[21] = molecular target: T6, GABA-A receptor; alpha-1/beta-2/gamma-2; assay: Positive allosteric modulation of GABAA receptor alpha1beta2gamma2 (unknown origin); format: protein-complex assay
[22] = molecular target: GABA A receptor alpha-3/beta-2/gamma-2 (Homo sapiens, UniProt P18507+P34903+P47870); assay: Positive allosteric modulation of recombinant wild type GABAA receptor alpha3beta2gamma2S (unknown origin) expressed in HEK293 cells assessed as potentiation of GABA induced chloride current response treated every 30 secs measured for 2 to 3 secs by patch clamp method; format: cell-based
[23] = molecular target: GABA A receptor alpha-3/beta-2/gamma-2 (Homo sapiens) (UniProt P47870+P18507+P34903); assay: Positive allosteric modulation of recombinant wild type GABAA receptor alpha3beta2gamma2S (unknown origin) expressed in HEK293 cells assessed as potentiation of GABA induced chloride current response relative to 30 uM GABA; format: cell-based
[24] = molecular target: T7, GABA A receptor alpha-2/beta-2/gamma-2; assay: Positive allosteric modulation of recombinant wild type GABAA receptor alpha2beta2gamma2S (unknown origin) expressed in HEK293 cells assessed as potentiation of GABA induced chloride current response treated every 30 secs measured for 2 to 3 secs by patch clamp method; format: cell-based
[25] = molecular target: GABA A receptor alpha-2/beta-2/gamma-2 (Homo sapiens) (UniProt P47870+P18507+P47869); assay: Positive allosteric modulation of recombinant wild type GABAA receptor alpha2beta2gamma2S (unknown origin) expressed in HEK293 cells assessed as potentiation of GABA induced chloride current response relative to GABA; format: cell-based
[26] = Positive allosteric modulation of recombinant wild type GABAA receptor alpha4beta2gamma2S (unknown origin) expressed in HEK293 cells assessed as potentiation of GABA induced chloride current response treated every 30 secs measured for 2 to 3 secs by patch clamp method; format: cell-based; details: Homo sapiens
HEK293 = assay: Positive allosteric modulation of recombinant wild type GABAA receptor alpha4beta2gamma2S (unknown origin) expressed in HEK293 cells assessed as potentiation of GABA induced chloride current response relative to GABA; format: cell-based; details: Homo sapiens
[27] = molecular target: Glycine receptor subunit alpha-3 (Homo sapiens, UniProt O75311); assay: Positive allosteric modulation of recombinant human glycine receptor alpha3 expressed in CHOK1 cells at -60 mV holding potential by whole cell patch-clamp method; format: cell-based
[28] = molecular target: Glycine receptor subunit alpha-3 (Homo sapiens) (UniProt O75311); assay: Positive allosteric modulation of recombinant human glycine receptor alpha3 expressed in CHOK1 cells assessed as potentiation of glycine-induced current at 20 uM at -60 mV holding potential by whole cell patch-clamp method relative to glycine; format: cell-based
[29] = molecular target: T2, Glycine receptor subunit alpha-1 (Homo sapiens); assay: Positive allosteric modulation of recombinant human glycine receptor alpha1 expressed in CHOK1 cells assessed as potentiation of glycine-induced current at 10 uM at -60 mV holding potential by whole cell patch-clamp method relative to glycine; format: cell-based
[30] = molecular target: T3, GABA-A receptor; alpha-1/beta-3/gamma-2 (Homo sapiens); assay: Positive allosteric modulation of recombinant human GABAA receptor alpha1beta3gamma2 expressed in CHOK1 cells assessed as potentiation of GABA-induced current at 10 uM at -60 mV holding potential by whole cell patch-clamp method relative to GABA; format: cell-based
[31] = molecular target: T5, GABA-A receptor; alpha-2/beta-3/gamma-2 (Homo sapiens); assay: Positive allosteric modulation of recombinant human GABAA receptor alpha2beta3gamma2 expressed in CHOK1 cells assessed as potentiation of GABA-induced current at 10 uM at -60 mV holding potential by whole cell patch-clamp method relative to GABA; format: cell-based
[32] = Positive allosteric modulation of wild-type C57BL/6J mouse mitral cell GABAA receptor at 9 to 10 mV holding potential by whole cell patch-clamp method
[33] = molecular target: Gamma-aminobutyric acid receptor subunit alpha-1/beta-3/gamma-2 (Rattus norvegicus, UniProt P18508+P62813+P63079); assay: Displacement of [3H]-flunitrazepam from recombinant rat GABAA receptor alpha1beta3gamma2S expressed in HEK293 cell membranes after 90 mins by liquid scintillation counting method
[34] = molecular target: Gamma-aminobutyric acid receptor subunit alpha-2/beta-3/gamma-2 (Rattus norvegicus, UniProt P18508+P23576+P63079); assay: Displacement of [3H]-flunitrazepam from recombinant rat GABAA receptor alpha2beta3gamma2S expressed in HEK293 cell membranes after 90 mins by liquid scintillation counting method
Chain of Gamma-aminobutyric acid receptor subunit alpha-2/beta-3/gamma-2 (P18508 whole entry): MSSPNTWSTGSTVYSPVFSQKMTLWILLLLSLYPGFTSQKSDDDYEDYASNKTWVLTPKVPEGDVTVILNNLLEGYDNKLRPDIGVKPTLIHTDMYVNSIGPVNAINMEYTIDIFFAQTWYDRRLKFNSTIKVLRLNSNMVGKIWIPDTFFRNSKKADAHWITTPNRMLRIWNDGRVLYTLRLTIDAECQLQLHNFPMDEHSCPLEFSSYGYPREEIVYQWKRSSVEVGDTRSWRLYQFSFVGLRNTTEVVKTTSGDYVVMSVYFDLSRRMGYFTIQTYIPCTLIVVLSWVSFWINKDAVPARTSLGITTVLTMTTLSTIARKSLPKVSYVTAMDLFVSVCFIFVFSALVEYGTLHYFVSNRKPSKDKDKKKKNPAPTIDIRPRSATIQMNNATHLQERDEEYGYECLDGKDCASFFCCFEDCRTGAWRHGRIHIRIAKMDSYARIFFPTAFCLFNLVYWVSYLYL
Chain of Gamma-aminobutyric acid receptor subunit alpha-2/beta-3/gamma-2 (P23576 whole entry): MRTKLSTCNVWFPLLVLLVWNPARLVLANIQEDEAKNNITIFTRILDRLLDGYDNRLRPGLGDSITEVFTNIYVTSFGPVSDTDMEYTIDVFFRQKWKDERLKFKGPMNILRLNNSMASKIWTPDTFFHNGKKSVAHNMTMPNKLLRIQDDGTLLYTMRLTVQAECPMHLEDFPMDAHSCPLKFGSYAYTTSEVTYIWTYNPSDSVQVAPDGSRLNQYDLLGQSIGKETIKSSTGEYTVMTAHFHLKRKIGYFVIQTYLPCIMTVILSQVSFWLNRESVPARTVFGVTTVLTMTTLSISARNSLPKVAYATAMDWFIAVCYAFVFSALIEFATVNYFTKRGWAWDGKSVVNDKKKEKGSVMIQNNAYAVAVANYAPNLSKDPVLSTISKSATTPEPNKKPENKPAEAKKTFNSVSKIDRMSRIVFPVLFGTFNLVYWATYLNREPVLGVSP
Chain of Gamma-aminobutyric acid receptor subunit alpha-2/beta-3/gamma-2 (P63079 whole entry): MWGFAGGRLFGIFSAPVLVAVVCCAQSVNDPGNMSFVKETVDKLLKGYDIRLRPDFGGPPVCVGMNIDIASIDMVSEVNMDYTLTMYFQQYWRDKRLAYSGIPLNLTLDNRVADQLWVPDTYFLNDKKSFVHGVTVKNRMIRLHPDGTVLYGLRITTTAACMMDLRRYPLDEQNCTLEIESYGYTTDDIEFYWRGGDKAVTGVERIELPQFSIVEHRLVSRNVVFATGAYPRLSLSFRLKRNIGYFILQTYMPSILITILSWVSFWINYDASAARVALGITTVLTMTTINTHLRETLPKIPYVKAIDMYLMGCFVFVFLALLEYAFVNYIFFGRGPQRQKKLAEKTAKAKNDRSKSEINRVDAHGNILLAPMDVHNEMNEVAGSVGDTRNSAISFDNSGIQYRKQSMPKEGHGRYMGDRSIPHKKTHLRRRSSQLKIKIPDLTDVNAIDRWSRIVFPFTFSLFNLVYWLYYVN

[35] = molecular target: Gamma-aminobutyric acid receptor subunit alpha-3/beta-3/gamma-2 (Rattus norvegicus, UniProt P18508+P20236+P63079); assay: Displacement of [3H]-flunitrazepam from recombinant rat GABAA receptor alpha3beta3gamma2S expressed in HEK293 cell membranes after 90 mins by liquid scintillation counting method
[36] = molecular target: GABA A receptor alpha-5/beta-3/gamma-2 (Rattus norvegicus, UniProt P18508+P19969+P63079); assay: Displacement of [3H]-flunitrazepam from recombinant rat GABAA receptor alpha5beta3gamma2S expressed in HEK293 cell membranes after 90 mins by liquid scintillation counting method

SMILES: C=C[C@]12CN(C)[C@@H]3[C@H]4CO[C@H](C[C@H]41)[C@]1(C(=O)Nc4ccccc41)[C@@H]32 [GELSEMINE]
- EC50 [1]: 590 nM
- fold change (FC) [2]: 0.55
- IC50 [3]: 30000 to 50000 nM
- IC50 [4]: 30000 to 50000 nM
- IC50 [5]: 30000 to 50000 nM

SMILES: COc1ccc(-n2nc3c4cc(Cl)ccc4[nH]cc-3c2=O)cc1
- fold change (FC) [6]: 10
- Ki [7]: > 10000 nM
- Ki [8]: > 10000 nM
- Ki [9]: 0.3 nM
- fold change (FC) [10]: 8
- fold change (FC) [11]: 5
- fold change (FC) [12]: 2
- fold change (FC) [13]: 2
- fold change (FC) [14]: 20

SMILES: CCCCNC(=O)c1cc(-c2ccc(F)cc2F)ccc1O
- EC50 [15]: 15000 nM
- Emax [16]: 56%

SMILES: Oc1c(Br)cc(Br)cc1-c1cc(Br)cc(Br)c1O [BROMOPHENE]
- EC50 [17]: 320 nM
- EC50 [18]: 720 nM
- EC50 [19]: 1080 nM

SMILES: C[C@@]1(O)CC[C@H]2[C@H](CC[C@@H]3[C@@H]2CC[C@]2(C)[C@@H](C(=O)Cn4cc(C#N)cn4)CC[C@@H]32)C1 [ZURANOLONE]
- EC50 [20]: 163 nM
- EC50 [21]: 374 nM

SMILES: COc1ccc(C(=O)/C=C/c2cc(OC)ccc2O)cc1
- EC50 [22]: 17700 nM
- fold change (FC) [23]: 19.6
- EC50 [24]: 7600 nM
- fold change (FC) [25]: 13.6
- EC50 [26]: 8100 nM
- fold change (FC) (HEK293): 6.2

SMILES: O=S(=O)(NCCOc1cccc2cccnc12)c1ccc(F)cc1
- EC50 [27]: 3900 nM
- fold change (FC) [28]: 28
- fold change (FC) [29]: 39.7
- fold change (FC) [30]: 0
- fold change (FC) [31]: 0

SMILES: CC1CC(=O)C=C(Nc2ccc(OC(F)(F)F)cc2)C1 (configuration not stated)
- EC50 [32]: 24500 nM

SMILES: C#Cc1ccc2c(c1)C(c1ccccc1F)=N[C@H](C)c1c(C(=O)NC)ncn1-2
- Ki [33]: 850 nM
- Ki [34]: 360 nM
- Ki [35]: 660 nM
- Ki [36]: 55 nM
